Article PMC5218480 (PLoS ONE, 2017)

Test system: MV-4-11 cells
Assay: Gene expression microarray analysis (Affymetrix PrimeView) and GSEA
Assay type: cell-based, human
Parameters: RFU PODN (11730768_x_at) / Fold change /veh PODN (11730768_x_at) / RFU LINC00158 (11744669_a_at) / Fold change /veh LINC00158 (11744669_a_at) / RFU DUSP10 (11751237_a_at) / Fold change /veh DUSP10 (11751237_a_at) / RFU ID3 (11757404_x_at) / Fold change /veh ID3 (11757404_x_at) / RFU PLEKHG5 (11737974_s_at) / Fold change /veh PLEKHG5 (11737974_s_at) / RFU LRRC4B (11730491_at) / Fold change /veh LRRC4B (11730491_at) / RFU GIMAP4 (11747438_a_at) / Fold change /veh GIMAP4 (11747438_a_at) / RFU KRT8 (11758183_x_at) / Fold change /veh KRT8 (11758183_x_at) / RFU CNN1 (11734310_a_at) / Fold change /veh CNN1 (11734310_a_at) / RFU VPS37D (11726825_at) / Fold change /veh VPS37D (11726825_at) / RFU C10orf10 (11716522_x_at) / Fold change /veh C10orf10 (11716522_x_at) / RFU KIR2DL2 /// KIR2DL4 /// KIR2DL5A /// KIR2DL5B /// KIR2DS1 /// KIR2DS2 /// KIR2DS3 /// KIR2DS4 /// KIR3DL3 /// KIR3DL3 /// KIR3DS1 (11738374_at) / Fold change /veh KIR2DL2 /// KIR2DL4 /// KIR2DL5A /// KIR2DL5B /// KIR2DS1 /// KIR2DS2 /// KIR2DS3 /// KIR2DS4 /// KIR3DL3 /// KIR3DL3 /// KIR3DS1 (11738374_at) / RFU C1QL1 (11718748_at) / Fold change /veh C1QL1 (11718748_at) / RFU TMPRSS4 (11747572_a_at) / Fold change /veh TMPRSS4 (11747572_a_at) / RFU HAMP (11756126_x_at) / Fold change /veh HAMP (11756126_x_at) / RFU RNFT2 (11725882_a_at) / Fold change /veh RNFT2 (11725882_a_at) / RFU NR4A2 (11747474_a_at) / Fold change /veh NR4A2 (11747474_a_at) / RFU ABCC12 (11746883_a_at) / Fold change /veh ABCC12 (11746883_a_at) / RFU TMEM136 (11760407_x_at) / Fold change /veh TMEM136 (11760407_x_at) / RFU CLDN22 /// WWC2 (11732394_at) / Fold change /veh CLDN22 /// WWC2 (11732394_at) / RFU HLA-DPB1 (11760878_x_at) / Fold change /veh HLA-DPB1 (11760878_x_at) / RFU SPINT1 (11716480_a_at) / Fold change /veh SPINT1 (11716480_a_at) / RFU GAP43 (11754022_s_at) / Fold change /veh GAP43 (11754022_s_at) / RFU A4GNT (11735810_at) / Fold change /veh A4GNT (11735810_at) / RFU PRB3 (11715151_x_at) / Fold change /veh PRB3 (11715151_x_at) / RFU TUBB4B (11761932_at) / Fold change /veh TUBB4B (11761932_at) / RFU CAPN14 (11732068_a_at) / Fold change /veh CAPN14 (11732068_a_at) / RFU TMCC2 (11721928_a_at) / Fold change /veh TMCC2 (11721928_a_at) / RFU IRGQ (11745062_a_at) / Fold change /veh IRGQ (11745062_a_at) / RFU FAM174B (11720279_a_at) / Fold change /veh FAM174B (11720279_a_at) / RFU TMPRSS4 (11748680_a_at) / Fold change /veh TMPRSS4 (11748680_a_at) / RFU FAM212B (11763350_a_at) / Fold change /veh FAM212B (11763350_a_at) / RFU PLEKHG5 (11743358_a_at) / Fold change /veh PLEKHG5 (11743358_a_at) / RFU ZSCAN30 (11745921_a_at) / Fold change /veh ZSCAN30 (11745921_a_at) / RFU CMKLR1 (11741424_a_at) / Fold change /veh CMKLR1 (11741424_a_at) / RFU LOC101060620 /// MAPK8IP1 (11723275_at) / Fold change /veh LOC101060620 /// MAPK8IP1 (11723275_at) / RFU SPTSSB (11747773_x_at) / Fold change /veh SPTSSB (11747773_x_at) / RFU PRSS12 (11739890_at) / Fold change /veh PRSS12 (11739890_at) / RFU BIN1 (11741810_x_at) / Fold change /veh BIN1 (11741810_x_at) / RFU WNT11 (11732464_a_at) / Fold change /veh WNT11 (11732464_a_at) / RFU C10orf10 (11716521_a_at) / Fold change /veh C10orf10 (11716521_a_at) / RFU C5orf56 (11738089_at) / Fold change /veh C5orf56 (11738089_at) / RFU CYB561 (11721691_x_at) / Fold change /veh CYB561 (11721691_x_at) / RFU ANKRD19P (11752326_a_at) / Fold change /veh ANKRD19P (11752326_a_at) / RFU OR2T12 /// OR2T33 /// OR2T8 (11738714_s_at) / Fold change /veh OR2T12 /// OR2T33 /// OR2T8 (11738714_s_at) / RFU VCAN (11748164_a_at) / Fold change /veh VCAN (11748164_a_at) / RFU JSRP1 (11732532_at) / Fold change /veh JSRP1 (11732532_at) / RFU KRTAP10-11 (11738290_x_at) / Fold change /veh KRTAP10-11 (11738290_x_at) / RFU MYO3A (11730013_a_at) / Fold change /veh MYO3A (11730013_a_at) / RFU EBF3 (11725865_a_at) / Fold change /veh EBF3 (11725865_a_at) / RFU CAMK2N1 (11719241_x_at) / Fold change /veh CAMK2N1 (11719241_x_at) / RFU C5orf56 (11738088_a_at) / Fold change /veh C5orf56 (11738088_a_at) / RFU OLFML3 (11715873_a_at) / Fold change /veh OLFML3 (11715873_a_at) / RFU LOC100653217 /// NTM (11731650_a_at) / Fold change /veh LOC100653217 /// NTM (11731650_a_at) / RFU MAPK11 (11762145_a_at) / Fold change /veh MAPK11 (11762145_a_at) / RFU FIZ1 (11724087_x_at) / Fold change /veh FIZ1 (11724087_x_at) / RFU OASL (11726364_x_at) / Fold change /veh OASL (11726364_x_at) / RFU SOX15 (11748057_x_at) / Fold change /veh SOX15 (11748057_x_at) / RFU CD79A (11719716_a_at) / Fold change /veh CD79A (11719716_a_at) / RFU HIST1H1D (11736915_at) / Fold change /veh HIST1H1D (11736915_at) / RFU CASKIN2 (11723855_a_at) / Fold change /veh CASKIN2 (11723855_a_at) / RFU LOC730098 (11760151_x_at) / Fold change /veh LOC730098 (11760151_x_at) / RFU OR4N2 (11742367_at) / Fold change /veh OR4N2 (11742367_at) / RFU PRRT2 (11749266_a_at) / Fold change /veh PRRT2 (11749266_a_at) / RFU SNX32 (11753110_a_at) / Fold change /veh SNX32 (11753110_a_at) / RFU CDHR5 (11726645_a_at) / Fold change /veh CDHR5 (11726645_a_at) / RFU RCAN1 (11760418_a_at) / Fold change /veh RCAN1 (11760418_a_at) / RFU FAM167A (11723789_a_at) / Fold change /veh FAM167A (11723789_a_at) / RFU FAM26E (11764081_at) / Fold change /veh FAM26E (11764081_at) / RFU ISYNA1 (11749810_s_at) / Fold change /veh ISYNA1 (11749810_s_at) / RFU ACY1 (11761880_at) / Fold change /veh ACY1 (11761880_at) / RFU 11764098_at / Fold change /veh 11764098_at / RFU SAMD14 (11745864_x_at) / Fold change /veh SAMD14 (11745864_x_at) / RFU NPB (11741838_a_at) / Fold change /veh NPB (11741838_a_at) / RFU TMPRSS6 (11731388_a_at) / Fold change /veh TMPRSS6 (11731388_a_at) / RFU KRTAP10-2 (11738614_at) / Fold change /veh KRTAP10-2 (11738614_at) / RFU ARHGAP8 /// PRR5-ARHGAP8 (11727945_x_at) / Fold change /veh ARHGAP8 /// PRR5-ARHGAP8 (11727945_x_at) / RFU KRTAP5-7 /// NADSYN1 (11734609_at) / Fold change /veh KRTAP5-7 /// NADSYN1 (11734609_at) / RFU RASL12 (11751679_a_at) / Fold change /veh RASL12 (11751679_a_at) / RFU CDKN2B (11736163_a_at) / Fold change /veh CDKN2B (11736163_a_at) / RFU PRF1 (11729649_at) / Fold change /veh PRF1 (11729649_at) / RFU, ZNF638 /// ZNF638-IT1 / Fold change vs veh, ZNF638 /// ZNF638-IT1 / RFU, PANK3 / Fold change vs veh, PANK3 / RFU, SH3YL1 / Fold change vs veh, SH3YL1 / RFU, ZEB2 / Fold change vs veh, ZEB2 / RFU, NRIP1 / Fold change vs veh, NRIP1 / RFU, PTTG1IP / Fold change vs veh, PTTG1IP / RFU, CAPN2 / Fold change vs veh, CAPN2 / RFU, MED14 / Fold change vs veh, MED14 / RFU, SNORA58 / Fold change vs veh, SNORA58 / RFU, C1orf63 / Fold change vs veh, C1orf63 / RFU, LRRFIP1 / Fold change vs veh, LRRFIP1 / RFU, NDUFAF7 / Fold change vs veh, NDUFAF7 / RFU, SLC12A2 / Fold change vs veh, SLC12A2 / RFU, IBTK / Fold change vs veh, IBTK / RFU, ESF1 / Fold change vs veh, ESF1 / Fold change vs veh, TMEM50B / RFU, TAOK1 / Fold change vs veh, TAOK1 / RFU, ACBD3 / Fold change vs veh, ACBD3 / RFU, TMA16 / Fold change vs veh, TMA16 / RFU, RWDD3 / Fold change vs veh, RWDD3 / RFU, BCAT1 / Fold change vs veh, BCAT1 / RFU, EDEM3 / Fold change vs veh, EDEM3 / RFU, TMEM33 / Fold change vs veh, TMEM33 / RFU, WDR75 / Fold change vs veh, WDR75 / RFU, AHCTF1 / Fold change vs veh, AHCTF1 / RFU, TFRC / Fold change vs veh, TFRC / RFU, ZDHHC17 / Fold change vs veh, ZDHHC17 / RFU, NOM1 / Fold change vs veh, NOM1 / RFU, ARL8B / Fold change vs veh, ARL8B / RFU, ZBTB11 / Fold change vs veh, ZBTB11 / RFU, TAMM41 / Fold change vs veh, TAMM41 / RFU, KIAA1704 /// LOC100996395 / Fold change vs veh, KIAA1704 /// LOC100996395 / RFU, ING1 / Fold change vs veh, ING1 / RFU, TRMT61B / Fold change vs veh, TRMT61B / RFU, FUBP3 / Fold change vs veh, FUBP3 / RFU, TP53 / Fold change vs veh, TP53 / RFU, TNKS2 / Fold change vs veh, TNKS2 / RFU, ZFP14 / Fold change vs veh, ZFP14 / RFU, ACTR2 / Fold change vs veh, ACTR2 / RFU, PPP3R1 / Fold change vs veh, PPP3R1 / RFU, PIK3R1 / Fold change vs veh, PIK3R1 / RFU, HNRNPA1 / Fold change vs veh, HNRNPA1 / RFU, RNF170 / Fold change vs veh, RNF170 / RFU, ZNF28 / Fold change vs veh, ZNF28 / RFU, RNGTT / Fold change vs veh, RNGTT / RFU, OGT / Fold change vs veh, OGT / RFU, BRD1 / Fold change vs veh, BRD1 / RFU, MARS / Fold change vs veh, MARS / RFU, ZNF655 / Fold change vs veh, ZNF655 / RFU, FAHD1 / Fold change vs veh, FAHD1 / RFU, BDP1 / Fold change vs veh, BDP1 / RFU, LRRCC1 / Fold change vs veh, LRRCC1 / RFU, ARID1A / Fold change vs veh, ARID1A / RFU, ZNF146 / Fold change vs veh, ZNF146 / RFU, ZNF330 / Fold change vs veh, ZNF330 / RFU, GPN3 / Fold change vs veh, GPN3 / RFU, C9orf123 / Fold change vs veh, C9orf123 / RFU, N4BP2L2 / Fold change vs veh, N4BP2L2 / RFU, ARFIP1 / Fold change vs veh, ARFIP1 / RFU, FAM179B / Fold change vs veh, FAM179B / RFU, BCL10 / Fold change vs veh, BCL10 / RFU, UHRF1BP1L / Fold change vs veh, UHRF1BP1L / RFU, BET1 / Fold change vs veh, BET1 / RFU, CNOT2 / Fold change vs veh, CNOT2 / RFU, ZNF268 / Fold change vs veh, ZNF268 / Fold change vs veh, ZNF507 / RFU, DGCR2 / Fold change vs veh, DGCR2 / RFU, WDSUB1 / Fold change vs veh, WDSUB1 / Fold change vs veh, HSP90B1 /// MIR3652 / RFU, ADSS / Fold change vs veh, ADSS / RFU, GK / Fold change vs veh, GK / RFU, ZNF148 / Fold change vs veh, ZNF148 / RFU, TAF9 / Fold change vs veh, TAF9 / RFU, SLC1A5 / Fold change vs veh, SLC1A5 / RFU, SLMO2 / Fold change vs veh, SLMO2 / RFU, ABCC4 / Fold change vs veh, ABCC4 / RFU, LOC101060439 /// RAP1B / Fold change vs veh, LOC101060439 /// RAP1B / RFU, RFX7 / Fold change vs veh, RFX7 / RFU, GTPBP10 / Fold change vs veh, GTPBP10 / RFU, CNEP1R1 / Fold change vs veh, CNEP1R1 / RFU, BIVM-ERCC5 /// ERCC5 / Fold change vs veh, BIVM-ERCC5 /// ERCC5 / RFU, ILF3 / Fold change vs veh, ILF3 / RFU 11762660_at / Fold change /veh 11762660_at / RFU VCAN (11757783_s_at) / Fold change /veh VCAN (11757783_s_at) / RFU DDX43 (11728927_at) / Fold change /veh DDX43 (11728927_at) / RFU KRT8 (11758188_x_at) / Fold change /veh KRT8 (11758188_x_at) / RFU NKD1 (11759106_at) / Fold change /veh NKD1 (11759106_at) / RFU SRD5A1 (11742802_a_at) / Fold change /veh SRD5A1 (11742802_a_at) / RFU TPSAB1 /// TPSB2 (11721975_s_at) / Fold change /veh TPSAB1 /// TPSB2 (11721975_s_at) / RFU GSTM3 (11746129_a_at) / Fold change /veh GSTM3 (11746129_a_at) / RFU IL23R (11737362_x_at) / Fold change /veh IL23R (11737362_x_at) / RFU TMEM51 (11727254_a_at) / Fold change /veh TMEM51 (11727254_a_at) / RFU PIWIL2 (11732686_x_at) / Fold change /veh PIWIL2 (11732686_x_at) / RFU ORM1 (11744905_x_at) / Fold change /veh ORM1 (11744905_x_at) / RFU CCDC152 (11743942_at) / Fold change /veh CCDC152 (11743942_at) / RFU ECM1 (11717891_a_at) / Fold change /veh ECM1 (11717891_a_at) / RFU IL23R (11748794_a_at) / Fold change /veh IL23R (11748794_a_at) / RFU TNFAIP8L3 (11732012_x_at) / Fold change /veh TNFAIP8L3 (11732012_x_at) / RFU MBOAT4 (11741988_at) / Fold change /veh MBOAT4 (11741988_at) / RFU 11764193_at / Fold change /veh 11764193_at / RFU TMEM53 (11763286_at) / Fold change /veh TMEM53 (11763286_at) / RFU MAGEB2 (11727129_at) / Fold change /veh MAGEB2 (11727129_at) / RFU TMEM200A (11744735_a_at) / Fold change /veh TMEM200A (11744735_a_at) / RFU CCDC152 (11751479_a_at) / Fold change /veh CCDC152 (11751479_a_at) / RFU FAM211A (11726209_a_at) / Fold change /veh FAM211A (11726209_a_at) / RFU RGS16 (11746705_a_at) / Fold change /veh RGS16 (11746705_a_at) / RFU VCAN (11755009_s_at) / Fold change /veh VCAN (11755009_s_at) / RFU RHOB (11743442_s_at) / Fold change /veh RHOB (11743442_s_at) / RFU RGS16 (11720943_a_at) / Fold change /veh RGS16 (11720943_a_at) / RFU RGS16 (11720944_at) / Fold change /veh RGS16 (11720944_at) / RFU, VPS4B / Fold change vs veh, VPS4B / RFU, CREB1 / Fold change vs veh, CREB1 / RFU, DNAJC13 / Fold change vs veh, DNAJC13 / RFU, GNAQ / Fold change vs veh, GNAQ / RFU, CDK5R1 / Fold change vs veh, CDK5R1 / RFU, ZRANB3 / Fold change vs veh, ZRANB3 / RFU, CUL4A / Fold change vs veh, CUL4A / RFU, CCNY / Fold change vs veh, CCNY / RFU, UFL1 / Fold change vs veh, UFL1 / RFU, COG3 / Fold change vs veh, COG3 / RFU, DIAPH2 / Fold change vs veh, DIAPH2 / RFU, SKA2 / Fold change vs veh, SKA2 / RFU, AFF3 / Fold change vs veh, AFF3 / RFU, LMF1 / Fold change vs veh, LMF1 / RFU, IPO11 / Fold change vs veh, IPO11 / RFU, DFFB / Fold change vs veh, DFFB / RFU, FOXP1 / Fold change vs veh, FOXP1 / RFU, CARD8 / Fold change vs veh, CARD8 / RFU, STRN3 / Fold change vs veh, STRN3 / RFU, ADK / Fold change vs veh, ADK / RFU, RASSF2 / Fold change vs veh, RASSF2 / RFU, WIPF1 / Fold change vs veh, WIPF1 / RFU, LARP1B / Fold change vs veh, LARP1B / RFU, RASA1 / Fold change vs veh, RASA1 / RFU, RB1 / Fold change vs veh, RB1 / RFU, PPFIA1 / Fold change vs veh, PPFIA1 / RFU, MAT2A / Fold change vs veh, MAT2A / RFU, CCT5 / Fold change vs veh, CCT5 / RFU, WDR92 / Fold change vs veh, WDR92 / RFU, CUX1 / Fold change vs veh, CUX1 / RFU, TTC7A / Fold change vs veh, TTC7A / RFU, TMEM135 / Fold change vs veh, TMEM135 / RFU, DEPTOR / Fold change vs veh, DEPTOR / RFU, CPM / Fold change vs veh, CPM / RFU, DNAJB6 / Fold change vs veh, DNAJB6 / RFU, CACNA2D3 / Fold change vs veh, CACNA2D3 / RFU, DTX4 / Fold change vs veh, DTX4 / RFU, TFCP2 / Fold change vs veh, TFCP2 / RFU, GMCL1 /// GMCL1P1 / Fold change vs veh, GMCL1 /// GMCL1P1 / RFU, AEBP2 / Fold change vs veh, AEBP2 / RFU, SNHG1 /// SNORD22 /// SNORD25 /// SNORD26 /// SNORD27 /// SNORD28 /// SNORD29 /// SNORD31 / Fold change vs veh, SNHG1 /// SNORD22 /// SNORD25 /// SNORD26 /// SNORD27 /// SNORD28 /// SNORD29 /// SNORD31 / Fold change (Aza/veh), C12orf56 (ProbeSet 11735607_a_at) / Fold change (ACY-1035/veh), C12orf56 (ProbeSet 11735607_a_at) / Fold change (Aza/veh), FGFR1OP (ProbeSet 11751329_s_at) / Fold change (ACY-1035/veh), FGFR1OP (ProbeSet 11751329_s_at) / Fold change (Aza/veh), VPS36 (ProbeSet 11739960_a_at) / Fold change (ACY-1035/veh), VPS36 (ProbeSet 11739960_a_at) / RFU SYPL1 (11715823_x_at) / Fold change /veh SYPL1 (11715823_x_at) / RFU IGFBP7 (11715501_s_at) / Fold change /veh IGFBP7 (11715501_s_at) / RFU REEP3 (11722064_at) / Fold change /veh REEP3 (11722064_at) / RFU IGLL1 (11728026_x_at) / Fold change /veh IGLL1 (11728026_x_at): dose or concentration left out as unconfirmed
Conditions: ProbeSet 11721611_a_at; LIST D

Nc1ccc(-c2cccs2)cc1NC(=O)c1ccc2c(c1)cc(C1CC1)n2CCN1CCOCC1 [ACY-1035]
Fold change vs veh, IPO11: 0.84
